Experimental data published in patent US9676782B2, “Substituted pyrazolo[1,5-a]pyrazines as negative allosteric modulators of metabotropic glutamate receptor 3” (Vanderbilt University, priority 2014, dated 2017).

Tests used:
rat mGlu3 = rat mGlu3 (Rattus norvegicus (Rat), UniProt P31422); assay: mGlu3 Ca2+ flux assay; type: cell-based; conditions: for IC50: NAM potency, decrease of glutamate EC80 response, >30,000 = no measurable activity, >10,000 = no plateau, read-out: rat mGlu3 IC50; for remaining activity at 30 µM: amplitude of response at 30 μM test compound as % of maximal response to glutamate, read-out: rat mGlu3 Glu max (%)
Outline: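 This calcium mobilization assay used rat mGlu3 cells cultured overnight (37° C., 5% CO2) and read on the FDSS7000 after a 10 minute room-temperature incubation in 20 μL assay buffer. Each of 360 readings per well was divided by its initial value (F/F0). Potency came from fitting normalized responses against log concentration with an unconstrained 4 parameter logistic equation, weighting triplicate points equally.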

rat mGlu5 = rat mGlu5 (Rattus norvegicus (Rat), UniProt P31424); assay: mGlu5 Ca2+ flux assay; type: cell-based; conditions: for Fold selectivity (mGlu3 vs. mGlu5): ratio of rat mGlu5 EC50 or IC50 to rat mGlu3 IC50; for EC50: read-out: rat mGlu5 EC50 or IC50; for Emax at 30 µM: PAM, amplitude of response at 30 μM test compound as % of maximal response to glutamate, read-out: rat mGlu5 Glu max (%)
Outline: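 Ca2+ flux read kinetically (FDSS7000) after overnight culture at 37° C/5% CO2 and a 5 min room-temperature buffer step following dye removal. Signals expressed per well as F/F0 and normalized to peak glutamate response; EC50 fitted by free 4-parameter logistic, three replicates per concentration equally weighted.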

Sequence of rat mGlu3 (P31422 23-879): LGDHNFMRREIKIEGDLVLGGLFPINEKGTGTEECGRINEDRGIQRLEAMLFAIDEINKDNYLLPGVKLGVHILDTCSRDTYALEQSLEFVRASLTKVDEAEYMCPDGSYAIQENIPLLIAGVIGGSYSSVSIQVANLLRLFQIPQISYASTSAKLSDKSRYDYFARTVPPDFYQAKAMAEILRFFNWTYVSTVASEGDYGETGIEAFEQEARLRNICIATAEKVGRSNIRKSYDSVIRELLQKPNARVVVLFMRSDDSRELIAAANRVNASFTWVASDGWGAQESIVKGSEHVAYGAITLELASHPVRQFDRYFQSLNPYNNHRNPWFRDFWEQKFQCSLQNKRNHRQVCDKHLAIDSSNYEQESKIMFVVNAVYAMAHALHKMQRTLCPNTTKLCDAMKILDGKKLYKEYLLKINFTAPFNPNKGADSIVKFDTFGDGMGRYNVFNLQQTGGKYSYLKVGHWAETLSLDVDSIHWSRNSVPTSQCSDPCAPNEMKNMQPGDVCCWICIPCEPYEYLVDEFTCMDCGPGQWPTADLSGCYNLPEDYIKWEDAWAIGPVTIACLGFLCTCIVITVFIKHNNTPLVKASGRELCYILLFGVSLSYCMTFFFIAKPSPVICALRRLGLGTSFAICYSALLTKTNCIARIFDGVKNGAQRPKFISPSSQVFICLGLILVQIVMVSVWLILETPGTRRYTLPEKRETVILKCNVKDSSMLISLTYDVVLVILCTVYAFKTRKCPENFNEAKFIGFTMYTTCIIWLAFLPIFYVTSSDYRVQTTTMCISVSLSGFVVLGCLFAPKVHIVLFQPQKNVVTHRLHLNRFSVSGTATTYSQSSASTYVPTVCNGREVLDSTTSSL
Sequence of rat mGlu5 (P31424 21-1203): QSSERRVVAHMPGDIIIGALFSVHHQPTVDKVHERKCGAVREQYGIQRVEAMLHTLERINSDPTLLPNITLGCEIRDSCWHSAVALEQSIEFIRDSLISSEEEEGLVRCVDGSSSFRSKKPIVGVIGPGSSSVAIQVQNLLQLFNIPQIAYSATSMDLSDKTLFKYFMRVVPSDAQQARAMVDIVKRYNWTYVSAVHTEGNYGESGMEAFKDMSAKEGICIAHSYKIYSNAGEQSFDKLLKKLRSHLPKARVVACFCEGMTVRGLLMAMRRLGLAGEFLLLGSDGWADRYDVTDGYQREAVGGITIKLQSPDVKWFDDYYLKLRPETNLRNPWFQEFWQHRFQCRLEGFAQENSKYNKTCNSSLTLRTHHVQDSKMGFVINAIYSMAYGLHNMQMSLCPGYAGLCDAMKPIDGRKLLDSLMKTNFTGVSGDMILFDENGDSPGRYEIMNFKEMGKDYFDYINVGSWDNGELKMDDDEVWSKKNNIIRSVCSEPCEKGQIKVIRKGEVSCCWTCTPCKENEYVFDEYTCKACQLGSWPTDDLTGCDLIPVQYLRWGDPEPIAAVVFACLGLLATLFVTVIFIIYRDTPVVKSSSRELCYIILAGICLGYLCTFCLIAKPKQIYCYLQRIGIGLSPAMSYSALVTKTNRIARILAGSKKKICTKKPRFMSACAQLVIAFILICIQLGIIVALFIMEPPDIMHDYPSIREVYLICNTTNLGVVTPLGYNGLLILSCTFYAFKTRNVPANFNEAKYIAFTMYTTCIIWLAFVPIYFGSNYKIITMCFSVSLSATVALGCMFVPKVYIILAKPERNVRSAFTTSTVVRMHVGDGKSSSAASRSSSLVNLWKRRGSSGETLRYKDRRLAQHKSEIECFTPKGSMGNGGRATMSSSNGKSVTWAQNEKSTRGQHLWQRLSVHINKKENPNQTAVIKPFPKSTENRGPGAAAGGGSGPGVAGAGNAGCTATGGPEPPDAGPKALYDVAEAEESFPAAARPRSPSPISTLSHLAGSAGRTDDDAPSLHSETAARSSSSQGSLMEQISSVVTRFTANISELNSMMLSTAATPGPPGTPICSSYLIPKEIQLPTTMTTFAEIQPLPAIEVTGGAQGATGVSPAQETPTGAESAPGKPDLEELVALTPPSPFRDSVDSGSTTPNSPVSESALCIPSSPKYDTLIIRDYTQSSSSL

SMILES | IC50 (rat mGlu3) [nM] | remaining activity at 30 µM (rat mGlu3) [%] | Fold selectivity (mGlu3 vs. mGlu5) (rat mGlu5) | EC50 (rat mGlu5) [nM] | Emax at 30 µM (rat mGlu5) [%]
C[C@@H]1CN(c2ccc(F)cc2)C(=O)c2cc(CNc3ccc(OC(F)F)cc3)nn21 [Compound 64, (R)-2-(((4-(difluoromethoxy)phenyl)amino)methyl)-5-(4-fluorophenyl)-7-methyl-6,7-dihydropyrazolo[1,5-a]pyrazin-4(5H)-one] | 1350 | 2.46 | >22 | > 30000 | –
C[C@H]1CN(c2ccc(F)cc2)C(=O)c2cc(CNc3ccc(OC(F)F)cc3)nn21 [Compound 65, (S)-2-(((4-(difluoromethoxy)phenyl)amino)methyl)-5-(4-fluorophenyl)-7-methyl-6,7-dihydropyrazolo[1,5-a]pyrazin-4(5H)-one] | 1340 | 2.16 | >22 | > 30000 | –
C[C@@H]1CN(c2ccc(F)cc2)C(=O)c2cc(CNc3ccc(CC#N)cc3)nn21 [Compound 66, (R)-2-(4-(((5-(4-fluorophenyl)-7-methyl-4-oxo-4,5,6,7-tetrahydropyrazolo[1,5-a]pyrazin-2-yl)methyl)amino)phenyl)acetonitrile] | 1460 | 0.95 | >20 | > 30000 | –
C[C@H]1CN(c2ccc(F)cc2)C(=O)c2cc(CNc3ccc(CC#N)cc3)nn21 [Compound 67, (S)-2-(4-(((5-(4-fluorophenyl)-7-methyl-4-oxo-4,5,6,7-tetrahydropyrazolo[1,5-a]pyrazin-2-yl)methyl)amino)phenyl)acetonitrile] | 2560 | 1.96 | >11 | > 30000 | –
C[C@@H]1CN(c2ccc(F)cc2)C(=O)c2cc(CNc3cccc(F)c3F)nn21 [Compound 68, (R)-2-(((2,3-difluorophenyl)amino)methyl)-5-(4-fluorophenyl)-7-methyl-6,7-dihydropyrazolo[1,5-a]pyrazin-4(5H)-one] | 1230 | 2.68 | >8.1 | > 10000 | 53.2
C[C@H]1CN(c2ccc(F)cc2)C(=O)c2cc(CNc3cccc(F)c3F)nn21 [Compound 69, (S)-2-(((2,3-difluorophenyl)amino)methyl)-5-(4-fluorophenyl)-7-methyl-6,7-dihydropyrazolo[1,5-a]pyrazin-4(5H)-one] | 2220 | 2.19 | 2.59 | 5750 | 89.1
C[C@@H]1CN(c2ccc(F)cc2)C(=O)c2cc(CNc3cc(F)ccc3F)nn21 [Compound 70, (R)-2-(((2,5-difluorophenyl)amino)methyl)-5-(4-fluorophenyl)-7-methyl-6,7-dihydropyrazolo[1,5-a]pyrazin-4(5H)-one] | 1140 | 2.67 | >8.7 | > 10000 | 57.5
C[C@H]1CN(c2ccc(F)cc2)C(=O)c2cc(CNc3cc(F)ccc3F)nn21 [Compound 71, (S)-2-(((2,5-difluorophenyl)amino)methyl)-5-(4-fluorophenyl)-7-methyl-6,7-dihydropyrazolo[1,5-a]pyrazin-4(5H)-one] | 1310 | 1.6 | 7.33 | 9600 | 76.6
C[C@@H]1CN(c2ccc(F)cc2)C(=O)c2cc(CNc3c(F)cccc3F)nn21 [Compound 72, (R)-2-(((2,6-difluorophenyl)amino)methyl)-5-(4-fluorophenyl)-7-methyl-6,7-dihydropyrazolo[1,5-a]pyrazin-4(5H)-one] | – | 4.1 | – | – | 59.9
C[C@H]1CN(c2ccc(F)cc2)C(=O)c2cc(CNc3c(F)cccc3F)nn21 [Compound 73, (S)-2-(((2,6-difluorophenyl)amino)methyl)-5-(4-fluorophenyl)-7-methyl-6,7-dihydropyrazolo[1,5-a]pyrazin-4(5H)-one] | – | 4.07 | – | – | 63.9
C[C@H]1CN(c2ccc(F)cc2)C(=O)c2cc(CNc3cc(F)cc(F)c3)nn21 [Compound 74, (S)-2-(((3,5-difluorophenyl)amino)methyl)-5-(4-fluorophenyl)-7-methyl-6,7-dihydropyrazolo[1,5-a]pyrazin-4(5H)-one] | 2350 | -2.19 | >4.2 | > 10000 | 59.3
C[C@@H]1CN(c2ccc(F)cc2)C(=O)c2cc(CNc3ccc(F)cc3F)nn21 [Compound 75, (R)-2-(((2,4-difluorophenyl)amino)methyl)-5-(4-fluorophenyl)-7-methyl-6,7-dihydropyrazolo[1,5-a]pyrazin-4(5H)-one] | 771 | 2.66 | 7.56 | 5830 | 85.6
C[C@H]1CN(c2ccc(F)cc2)C(=O)c2cc(CNc3ccc(F)cc3F)nn21 [Compound 76, (S)-2-(((2,4-difluorophenyl)amino)methyl)-5-(4-fluorophenyl)-7-methyl-6,7-dihydropyrazolo[1,5-a]pyrazin-4(5H)-one] | 1170 | 0.35 | 7.00 | 8190 | 86.1
C[C@@H]1CN(c2ccc(F)cc2)C(=O)c2cc(CNc3ccc(F)c(F)c3)nn21 [Compound 77, (R)-2-(((3,4-difluorophenyl)amino)methyl)-5-(4-fluorophenyl)-7-methyl-6,7-dihydropyrazolo[1,5-a]pyrazin-4(5H)-one] | 1570 | 3.77 | >19 | > 30000 | –
C[C@H]1CN(c2ccc(F)cc2)C(=O)c2cc(CNc3ccc(F)c(F)c3)nn21 [Compound 78, (S)-2-(((3,4-difluorophenyl)amino)methyl)-5-(4-fluorophenyl)-7-methyl-6,7-dihydropyrazolo[1,5-a]pyrazin-4(5H)-one] | 1170 | 1.23 | >8.5 | > 10000 | 61.6
C[C@@H]1CN(c2ccc(F)cc2)C(=O)c2cc(CNc3c(F)cc(F)cc3F)nn21 [Compound 79, (R)-5-(4-fluorophenyl)-7-methyl-2-(((2,4,6-trifluorophenyl)amino)methyl)-6,7-dihydropyrazolo[1,5-a]pyrazin-4(5H)-one] | 1280 | 1.49 | >7.8 | > 10000 | 40
C[C@H]1CN(c2ccc(F)cc2)C(=O)c2cc(CNc3c(F)cc(F)cc3F)nn21 [Compound 80, (S)-5-(4-fluorophenyl)-7-methyl-2-(((2,4,6-trifluorophenyl)amino)methyl)-6,7-dihydropyrazolo[1,5-a]pyrazin-4(5H)-one] | 4320 | -0.58 | 1.79 | 7750 | 95.8
COc1ccc(NCc2cc3n(n2)CCN(c2ccc(Cl)cc2)C3=O)cc1 [Compound 81, 5-(4-chlorophenyl)-2-(((4-methoxyphenyl)amino)methyl)-6,7-dihydropyrazolo[1,5-a]pyrazin-4(5H)-one] | 1360 | 15.4 | >22 | > 30000 | –
